The structures appear in SMILES notation. Values after ≈ are worked out from the molar mass of the structure shown.

For this series the following is noted: buffer; pH 7.4; 200.0 µM.
As a reminder, the kinetic solubility is the concentration staying in solution when a stock, usually in DMSO, is diluted into the medium. `COc1ccc(C(=O)Nc2ccc(NC(=O)c3ccccc3F)cn2)cc1` registered a solubility (kinetic) of 1 µg/mL (≈ 2.74 µM).
On to `C=CCn1c(SCC(N)=O)nc2sc3c(c2c1=O)CCC3`, for which the solubility (kinetic) turned out to be 38.6 µg/mL (≈ 120 µM).
In the case of `Cc1ccc2nc(-c3ccc(NC(=O)COCC(=O)O)cc3)sc2c1` it was above 53.5 µg/mL; in that of `COc1ccc(NC(=S)NC(=O)/C=C/c2ccc(F)cc2)cc1`, below 0.4 µg/mL.
`CC(C)CNS(=O)(=O)c1ccc(CCC(=O)NCCc2ccccc2)cc1` returned a kinetic solubility of 16.3 µg/mL (≈ 42 µM).
`CCC(Cc1ccccc1)NC(=O)CCc1ccccc1` (stereo not given): the kinetic solubility is above 42.2 µg/mL.
`CC(=O)Nc1ccc(-n2c(C)ccc2C)cc1`: the solubility (kinetic) is above 34.2 µg/mL.
`Nc1ncnc2c1nc(Br)n2[C@@H]1O[C@@H]2COP(=O)([O-])O[C@H]2[C@H]1O.[Na+]` showed a kinetic solubility above 64.5 µg/mL.
For `NS(=O)(=O)c1cccc(NC(=O)CSc2nnc3n2CCCCC3)c1`, the solubility (kinetic) was above 57.2 µg/mL.
The result for `O=C(NCCN1CCOCC1)c1ccc(Cl)cc1O` reads above 42.7 µg/mL; that for `COc1cc(C(=O)COC(=O)c2ccc([N+](=O)[O-])o2)cc(OC)c1OC`, above 54.8 µg/mL.
Compound `CN1CCCC(OC(=O)c2ccc(C(C)(C)C)cc2)C1.Cl` (stereo not given) gave a solubility (kinetic) above 46.8 µg/mL.
The result for `CC1=C(C(=O)Nc2ccc(C(=O)NCCC(C)C)cc2)SCCO1` reads 46.3 µg/mL (≈ 133 µM); that for `COc1ccc(C(=O)OCC(=O)c2ccc[nH]2)cc1`, 20.4 µg/mL (≈ 78.7 µM); that for `Fc1cc(Br)cc(F)c1NC(=S)N1CCOCC1`, 33.8 µg/mL (≈ 100 µM).
`Cc1cc(C)nc(Sc2ncnc(N)c2[N+](=O)[O-])n1`: the kinetic solubility is above 41.7 µg/mL.
The result for `O=C(OCC(=O)N1CCN(C(=O)c2ccco2)CC1)c1ccc(Cl)nc1` reads above 56.7 µg/mL.
`CC(C)NC(=O)CN1CCC(c2nc3ccccc3[nH]2)CC1` displayed a solubility (kinetic) above 45.1 µg/mL.
The compound `CCSc1nnc(NC(=O)CN2C(=O)NC3(CCCC3)C2=O)s1` displayed a kinetic solubility above 53.3 µg/mL.
`N#Cc1c(-c2ccccc2)cc(-c2ccccc2)[nH]c1=O` displayed a solubility (kinetic) of 0.6 µg/mL (≈ 2.2 µM).
In the case of `O=C(NCCc1csc(-c2cccnc2)n1)c1cccc(Cl)c1` it was above 51.6 µg/mL.
Consider `CC(C)[C@H](NC(=O)c1ccccc1)C(=O)NCCc1ccccc1`, for which the kinetic solubility was 10.3 µg/mL (≈ 31.7 µM).
`Cn1c(-c2ccccc2)nc2cnccc21` yielded a solubility (kinetic) above 31.4 µg/mL.
In the case of `O=C1/C(=C/c2ccncc2)N2CCC1CC2` it was above 32.1 µg/mL; in that of `S=C(NCc1cccnc1)c1ccccc1`, above 34.2 µg/mL.
The compound `CC(=O)Nc1cccc(C(=O)NCCc2ccco2)c1` gave a kinetic solubility above 40.8 µg/mL.
Take `O=CN1CCN(C(=O)c2cc3cc(Cl)ccc3[nH]2)CC1`: the solubility (kinetic) came to 34.9 µg/mL (≈ 120 µM).
`Cc1ccc(S(=O)(=O)CCC(=O)OC(C)c2nnc(-c3cccs3)o2)cc1` (stereo not given) showed a kinetic solubility above 61 µg/mL.
With `COc1ccccc1CNC(=O)COC(=O)c1ccc(C(=O)c2ccccc2)cc1`, the kinetic solubility stood at 8.2 µg/mL (≈ 20.3 µM).
On to `Cc1[nH]c2c(ccc3cccnc32)c1C`, for which the solubility (kinetic) was 19.4 µg/mL (≈ 98.9 µM).
As to `O=C(CN1CCCCCC1)Nc1ccc(S(=O)(=O)N2CCCCC2)cc1`, the solubility (kinetic) was 50.4 µg/mL (≈ 133 µM).
For the compound `CCOC(=O)CSc1nc(C)cc2c1C(=O)OC2`, the kinetic solubility came out at 37.5 µg/mL (≈ 140 µM).
The compound `Cc1ccc2c(COC(=O)C3CC(=O)N(c4ccc5c(c4)OCCO5)C3)cc(=O)oc2c1` (stereo not given) showed a solubility (kinetic) of 19.6 µg/mL (≈ 45 µM).
In the case of `Cc1ccc(CC(=O)O/N=C(\N)c2ccccn2)cc1` it was 27.5 µg/mL (≈ 102 µM); in that of `COC(=O)c1ccc(CN2CCc3ccccc32)cc1`, 1 µg/mL (≈ 3.74 µM).
In the case of `Cc1cccc(NC(=O)Nc2ccccn2)c1C` it was 1.2 µg/mL (≈ 4.97 µM); in that of `Cc1ccsc1C(=O)NC1CCCCC1C` (stereo not given), above 35.6 µg/mL.
`Cc1ccccc1CC(=O)Nc1cc(C(C)(C)C)on1`: the solubility (kinetic) stood at 36.9 µg/mL (≈ 135 µM).
The result for `O=C(COC(=O)c1ccc(O)cc1)Nc1ncc(Cl)cc1Cl` reads 31.5 µg/mL (≈ 92.3 µM); that for `Fc1ccc(-n2c(=S)[nH]c3cccnc32)cc1`, above 36.8 µg/mL.
The result for `CCCCN1CNC(=S)N(CCc2ccc(OCC)c(OCC)c2)C1` reads 12.6 µg/mL (≈ 34.5 µM); that for `Cc1ccccc1NC1=NCC(c2ccc([N+](=O)[O-])cc2)S1` (stereo not given), 10.5 µg/mL (≈ 33.5 µM).
As for `Cc1ccc(C(=O)NC2CC3CCC(C2)N3)cc1` (stereo not given), the solubility (kinetic) was above 36.7 µg/mL.
The result for `S=C(Nc1ccccc1Cl)N1CCC(c2ccccc2)C1` (stereo not given) reads 17.9 µg/mL (≈ 56.5 µM); that for `COc1ccc2[nH]cc(CCN(C)C)c2c1`, above 32.7 µg/mL; that for `O=[N+]([O-])c1ccccc1S(=O)(=O)N(CC1CO1)c1ccccc1` (stereo not given), above 50.2 µg/mL.
Take `Cc1ccc2nc(C3CCCCC3)[nH]c2c1`: the kinetic solubility was above 32.1 µg/mL.
Regarding `O=C(Cn1cc([N+](=O)[O-])ccc1=O)NCc1ccc(Cl)cc1Cl`, the kinetic solubility is 1.9 µg/mL (≈ 5.33 µM).
On to `COc1ccccc1C(=O)Nc1sc2c(c1C#N)CCC2`, for which the kinetic solubility came out at 0.5 µg/mL (≈ 1.68 µM).
`C#CCOc1ccc(/C=C2/C(=O)ON=C2C)cc1Cl` displayed a kinetic solubility of 32.9 µg/mL (≈ 119 µM).
For the compound `O=S(=O)(Oc1ccccc1N1CCCCC1)c1ccccc1`, the kinetic solubility amounted to 2.3 µg/mL (≈ 7.25 µM).
The compound `COc1ccc(S(=O)(=O)NC2CC3CCC2C3)cc1` (stereo not given) yielded a solubility (kinetic) of 36.5 µg/mL (≈ 130 µM).
Compound `O=C(Nc1ccc(F)cc1)N1CCCN(c2ccc(C(F)(F)F)cn2)CC1` yielded a kinetic solubility of 2.2 µg/mL (≈ 5.75 µM).
Turning to `Cc1cc(NC(=O)C2CC(=O)N(c3ccc(Cl)cc3)C2)no1` (stereo not given), the kinetic solubility came to 31 µg/mL (≈ 97 µM).
On to `CN(C(=O)CSc1nnc(C2CC2)n1C1CC1)C1(C#N)CCCCC1`, for which the solubility (kinetic) was above 53.9 µg/mL.
`O=C(CSc1nc2c(c(=O)[nH]1)CCC2)Nc1cccc(F)c1`: the kinetic solubility was determined as 12.2 µg/mL (≈ 38.2 µM).
`COc1ccc(NC(=O)CCSc2nc(C)cs2)cc1` registered a solubility (kinetic) above 46.3 µg/mL.
Regarding `O=C(CCC1CCCN(C(=O)c2ccco2)C1)NCc1ccccc1F` (stereo not given), the solubility (kinetic) is above 53.8 µg/mL.
In the case of `C/C(=N\O)C(=O)Nc1ccccc1`, the kinetic solubility is above 26.7 µg/mL.
Turning to `CCN(C(=O)COC(=O)c1ccc([N+](=O)[O-])o1)C1CCCCC1`, the solubility (kinetic) is above 48.6 µg/mL.
With `CC(C)(C)c1ccc(O)c(N=Cc2c(O)ccc3ccccc23)c1`, the kinetic solubility was below 0.7 µg/mL.
`COc1ccc2ccn(S(=O)(=O)c3ccccc3)c2c1` came in with a kinetic solubility of 2.9 µg/mL (≈ 10.1 µM).
For the compound `NC(=O)C(Cc1ccccc1)NC(=O)C12CC3CC(CC(C3)C1)C2` (stereo not given), the solubility (kinetic) worked out at 48.1 µg/mL (≈ 147 µM).
Consider `Cn1c(SCC(=O)NCC2COc3ccccc3O2)nnc1C(F)(F)F` (stereo not given), for which the kinetic solubility was above 58.3 µg/mL.
With `CC(NC(=O)CNC(=O)c1cccc(Cl)c1)c1ccccc1` (stereo not given), the kinetic solubility worked out at 43.7 µg/mL (≈ 138 µM).
The result for `Oc1c(Cl)cc(Cl)cc1CNc1nc2ccccc2[nH]1` reads 3.5 µg/mL (≈ 11.4 µM).
For `Cc1ccc(C(=O)NCCCN2CCOCC2)cc1Cl`, the solubility (kinetic) worked out at 42.5 µg/mL (≈ 143 µM).
The compound `CC(Sc1nc2c(c(=O)[nH]1)CCCC2)C(=O)Nc1ccccc1C#N` (stereo not given) had a kinetic solubility of 46.1 µg/mL (≈ 130 µM).
The result for `Cc1nc(-c2ccc(C(=O)N3CCCC3)cc2)cs1` reads above 40.9 µg/mL.
In the case of `O=C(NCc1ccccn1)Nc1cccc(F)c1` it was 35.9 µg/mL (≈ 146 µM).
In turn, `COc1ccc(N/C=C\C(=O)c2ccc3ccccc3c2)cc1` registered a solubility (kinetic) below 0.6 µg/mL.
`CCOC(=O)c1cc(C#N)c(SCC(N)=O)[nH]c1=O`: the solubility (kinetic) is above 42.2 µg/mL.
Regarding `Cc1ccc(C(=O)Nc2ccccc2N2CCCC2)s1`, the solubility (kinetic) was above 43 µg/mL.
The result for `CNC(=O)CSc1nnc(-c2ccccc2)n1C` reads above 39.3 µg/mL.
The result for `Cc1ccc(OCC(=O)O/N=C(\N)c2ccncc2)c(C)c1` reads 30.9 µg/mL (≈ 103 µM); that for `COc1ccc(NCc2ccsc2)cc1`, 31.4 µg/mL (≈ 143 µM).
On to `CC(=O)c1ccc(N2CCN(CC3CCCCC3)CC2)cc1`, for which the solubility (kinetic) is 22 µg/mL (≈ 73.2 µM).
Compound `O=C(CSc1cccc[n+]1[O-])NC1CCCCC1` came in with a kinetic solubility above 40 µg/mL.
`O=C(CCc1ccccc1)N1CCN(c2ccccc2F)CC1` showed a solubility (kinetic) of 45.7 µg/mL (≈ 146 µM).
`CC(=O)Nc1ccc(NC(=O)C(C)OC(=O)CCSc2ccccc2Cl)cc1` (stereo not given): the solubility (kinetic) stood at 10.2 µg/mL (≈ 24.2 µM).
Take `Cc1nc(COc2ccccc2Cl)sc1-c1ccnc(N)n1`: the kinetic solubility stood at 1.2 µg/mL (≈ 3.61 µM).
`O=C(CCSCc1ccc(Cl)cc1)NCc1cccnc1`: the solubility (kinetic) was 48 µg/mL (≈ 150 µM).
For the compound `O=C(NCCc1cnc[nH]1)c1cccs1`, the kinetic solubility is above 33.2 µg/mL.
For the compound `COCCNC(=O)CSc1ncnc2sc(-c3ccccc3)cc12`, the kinetic solubility stood at 1 µg/mL (≈ 2.78 µM).
Compound `COc1cc(OC)c(C(=O)NC2CCCc3ccccc32)cc1OC` (stereo not given) displayed a solubility (kinetic) of 44.3 µg/mL (≈ 130 µM).
In the case of `O=C(COC(=O)c1c(Cl)cccc1Cl)NC1CCCCCCC1` it was 8.2 µg/mL (≈ 22.9 µM).
On to `COc1ccc(CN2CCCN(C)CC2)c(OC)c1C`, for which the solubility (kinetic) was 26.8 µg/mL (≈ 96.3 µM).
In turn, `Cc1cc(Nc2ccc(C)c(Cl)c2)nc(N2CCOCC2)n1` displayed a solubility (kinetic) of 7.6 µg/mL (≈ 23.8 µM).
In the case of `NC(=O)N1CCc2ccccc21` it was above 24.3 µg/mL; in that of `O=C(O)/C=C/C(=O)N1CCN(C(c2ccccc2)c2ccccc2)CC1`, above 52.6 µg/mL; in that of `C=CCNC(=O)N1CCc2[nH]c3ccc(F)cc3c2C1`, above 41 µg/mL.
In turn, `O=C(CSc1ccccc1F)Nc1ccc2c(c1)OCO2` gave a kinetic solubility of 45.4 µg/mL (≈ 149 µM).
The result for `O=C(/C=C/c1ccc(F)cc1)N1CC[C@@]2(O)CCCC[C@H]2C1` reads above 45.5 µg/mL; that for `COC(=O)c1cc(-c2ccc(OC)cc2)on1`, 9.7 µg/mL (≈ 41.6 µM).
In the case of `CCOCCCNC(=O)c1cc2c(=O)n3cccc(C)c3nc2s1` it was 4.1 µg/mL (≈ 11.9 µM); in that of `c1cnc2c(c1)ccc1ncccc12`, above 27 µg/mL; in that of `NC(=O)COc1ccc2oc(-c3ccccc3)cc(=O)c2c1`, 1.1 µg/mL (≈ 3.73 µM).
As to `COc1ccc(NC(=O)CSCc2ccc(C#N)cc2)c(OC)c1`, the solubility (kinetic) is above 51.4 µg/mL.
`Cc1nc(SCc2ccccc2)c2ccsc2n1` showed a solubility (kinetic) below 0.3 µg/mL.
As to `Nc1ccc(-c2nc3cc([N+](=O)[O-])ccc3o2)cc1`, the solubility (kinetic) came out at 1.1 µg/mL (≈ 4.31 µM).
`Nc1ccc(C(=O)Nc2nccs2)cc1`: the kinetic solubility is above 32.9 µg/mL.
In turn, `NCCCNc1nc(N)c([N+](=O)[O-])c(NC2CCCCC2)n1` yielded a kinetic solubility above 46.4 µg/mL.
The compound `Cc1csc(NC(=O)Cc2ccccc2Cl)n1` returned a kinetic solubility of 34.4 µg/mL (≈ 129 µM).
The result for `CN1C(=O)c2ccc(NC(=O)CSc3ccccc3)cc2C1=O` reads 6.3 µg/mL (≈ 19.3 µM); that for `CCn1c(Oc2ccccc2C)nc2c1c(=O)n(C)c(=O)n2C`, above 47.2 µg/mL.

For the origin of these results see PubChem BioAssay AID1996.
